# Assay results as given in PMC3063124 (The Journal of neuroscience : the official journal of the …, 2011).
# Several values for one entry are separate records, joined by “and”; a condition that tells them apart may be missing. Identical values can stand only once. Like-named read-outs stand apart in the source and are kept apart here. Marks after values point to notes of the source that are not given here.
# What was measured:
# [1] = biological target: GluN1/2A-(2D S2) chimera (Rattus norvegicus, UniProt Q00959+Q62645); experiment: Two-electrode voltage-clamp recordings, chimeric receptor in Xenopus oocytes; type: cell-based
# [2] = biological target: T1, GluN1/GluN2D (Rattus norvegicus, UniProt Q62645); type: cell-based
# [3] = biological target: GluN1/GluN2D A752V (Rattus norvegicus, UniProt P35439+Q62645, A752V); experiment: Two-electrode voltage-clamp recordings, mutant receptor in Xenopus oocytes; type: cell-based
# [4] = biological target: GluN1/GluN2D A752V (Rattus norvegicus, UniProt Q62645, A752V); experiment: as above; type: cell-based
# [5] = biological target: GluN1/GluN2C (Rattus norvegicus, UniProt Q00961); type: cell-based
# [6] = biological target: GluN1/2A-(2D S1) chimera (Rattus norvegicus, UniProt Q00959+Q62645); experiment: Two-electrode voltage-clamp recordings, chimeric receptor in Xenopus oocytes; type: cell-based
# [7] = biological target: GluN1/GluN2A (Rattus norvegicus, UniProt Q00959); type: cell-based
# [8] = biological target: GluN1/GluN2D Q701Y (Rattus norvegicus, UniProt Q62645, Q701Y); experiment: Two-electrode voltage-clamp recordings, mutant receptor in Xenopus oocytes; type: cell-based
# [9] = biological target: GluN1/GluN2D Q701Y (Rattus norvegicus, UniProt P35439+Q62645, Q701Y); experiment: as above; type: cell-based
# [10] = extracellular oocyte recording solution; ref Mosley et al., 2010; cited from earlier work
# [11] = biological target: GluN1/GluN2D M726A (Rattus norvegicus, UniProt P35439+Q62645, M726A); experiment: Two-electrode voltage-clamp recordings, mutant receptor in Xenopus oocytes; type: cell-based
# [12] = biological target: GluN1/GluN2D M726A (Rattus norvegicus, UniProt Q62645, M726A); experiment: as above; type: cell-based
# [13] = biological target: GluN1/GluN2D QEQY/HDYS + L705F + K779Y (Rattus norvegicus, UniProt Q62645, E700D/K779Y/L705F/Q699H/Q701Y/Y702S); experiment: as above; type: cell-based
# [14] = biological target: GluN1/GluN2D QEQY/HDYS + L705F + K779Y (Rattus norvegicus, UniProt P35439+Q62645, E700D/K779Y/L705F/Q699H/Q701Y/Y702S); experiment: as above; type: cell-based
# [15] = biological target: GluN1/GluN2D Y723A (Rattus norvegicus, UniProt P35439+Q62645, Y723A); experiment: as above; type: cell-based
# [16] = biological target: GluN1/GluN2D Y723A (Rattus norvegicus, UniProt Q62645, Y723A); experiment: as above; type: cell-based
# [17] = biological target: GluN1/GluN2D L705F (Rattus norvegicus, UniProt P35439+Q62645, L705F); experiment: as above; type: cell-based
# [18] = biological target: GluN1/GluN2D L705F (Rattus norvegicus, UniProt Q62645, L705F); experiment: as above; type: cell-based
# [19] = biological target: GluN1/2A-(2D S1+S2) chimera (Rattus norvegicus, UniProt Q00959+Q62645); experiment: Two-electrode voltage-clamp recordings, chimeric receptor in Xenopus oocytes; type: cell-based
# [20] = biological target: GluN1/GluN2B (Rattus norvegicus, UniProt Q00960); type: cell-based
# [21] = biological target: GluN1/GluN2D K779Y (Rattus norvegicus, UniProt Q62645, K779Y); experiment: Two-electrode voltage-clamp recordings, mutant receptor in Xenopus oocytes; type: cell-based
# [22] = biological target: GluN1/GluN2D K779Y (Rattus norvegicus, UniProt P35439+Q62645, K779Y); experiment: as above; type: cell-based
# [23] = biological target: GluN1/GluN2D QEQY/HDYS (Rattus norvegicus, UniProt Q62645, E700D/Q699H/Q701Y/Y702S); experiment: as above; type: cell-based
# [24] = biological target: GluN1/GluN2D QEQY/HDYS (Rattus norvegicus, UniProt P35439+Q62645, E700D/Q699H/Q701Y/Y702S); experiment: as above; type: cell-based
# [25] = biological target: GluN1/GluN2A HDYS/QEQY + F680L + Y754K (Rattus norvegicus, UniProt Q00959, D675E/F680L/H674Q/S677Y/Y676Q/Y754K); experiment: as above; type: cell-based
# [26] = biological target: GluN1/GluN2A HDYS/QEQY + F680L + Y754K (Rattus norvegicus, UniProt P35439+Q00959, D675E/F680L/H674Q/S677Y/Y676Q/Y754K); experiment: as above; type: cell-based
# [27] = biological target: GluN1/GluN2D Y729A (Rattus norvegicus, UniProt Q62645, Y729A); experiment: as above; type: cell-based
# [28] = biological target: GluN1/GluN2D Y729A (Rattus norvegicus, UniProt P35439+Q62645, Y729A); experiment: as above; type: cell-based
# [29] = biological target: T1, GluN1/GluN2D; type: cell-based; remark: listed apart in the source
# [30] = biological target: T2, GluN1/GluN2D (Rattus norvegicus, UniProt P35439+Q62645); type: cell-based
# [31] = biological target: T2, GluN1/GluN2D; settings: read-out: EC50 of agonist
# [32] = fold shift relative to GluN1/GluN2D
# [33] = fixed during fitting to the Hill equation
# [34] = 1 μM QNZ46 plus glycine continuously present, after removal of glutamate
# [35] = 3 μM QNZ46 plus glycine continuously present, after removal of glutamate
# GluN1/GluN2C, sequence (Q00961 20-1237, other chains not shown): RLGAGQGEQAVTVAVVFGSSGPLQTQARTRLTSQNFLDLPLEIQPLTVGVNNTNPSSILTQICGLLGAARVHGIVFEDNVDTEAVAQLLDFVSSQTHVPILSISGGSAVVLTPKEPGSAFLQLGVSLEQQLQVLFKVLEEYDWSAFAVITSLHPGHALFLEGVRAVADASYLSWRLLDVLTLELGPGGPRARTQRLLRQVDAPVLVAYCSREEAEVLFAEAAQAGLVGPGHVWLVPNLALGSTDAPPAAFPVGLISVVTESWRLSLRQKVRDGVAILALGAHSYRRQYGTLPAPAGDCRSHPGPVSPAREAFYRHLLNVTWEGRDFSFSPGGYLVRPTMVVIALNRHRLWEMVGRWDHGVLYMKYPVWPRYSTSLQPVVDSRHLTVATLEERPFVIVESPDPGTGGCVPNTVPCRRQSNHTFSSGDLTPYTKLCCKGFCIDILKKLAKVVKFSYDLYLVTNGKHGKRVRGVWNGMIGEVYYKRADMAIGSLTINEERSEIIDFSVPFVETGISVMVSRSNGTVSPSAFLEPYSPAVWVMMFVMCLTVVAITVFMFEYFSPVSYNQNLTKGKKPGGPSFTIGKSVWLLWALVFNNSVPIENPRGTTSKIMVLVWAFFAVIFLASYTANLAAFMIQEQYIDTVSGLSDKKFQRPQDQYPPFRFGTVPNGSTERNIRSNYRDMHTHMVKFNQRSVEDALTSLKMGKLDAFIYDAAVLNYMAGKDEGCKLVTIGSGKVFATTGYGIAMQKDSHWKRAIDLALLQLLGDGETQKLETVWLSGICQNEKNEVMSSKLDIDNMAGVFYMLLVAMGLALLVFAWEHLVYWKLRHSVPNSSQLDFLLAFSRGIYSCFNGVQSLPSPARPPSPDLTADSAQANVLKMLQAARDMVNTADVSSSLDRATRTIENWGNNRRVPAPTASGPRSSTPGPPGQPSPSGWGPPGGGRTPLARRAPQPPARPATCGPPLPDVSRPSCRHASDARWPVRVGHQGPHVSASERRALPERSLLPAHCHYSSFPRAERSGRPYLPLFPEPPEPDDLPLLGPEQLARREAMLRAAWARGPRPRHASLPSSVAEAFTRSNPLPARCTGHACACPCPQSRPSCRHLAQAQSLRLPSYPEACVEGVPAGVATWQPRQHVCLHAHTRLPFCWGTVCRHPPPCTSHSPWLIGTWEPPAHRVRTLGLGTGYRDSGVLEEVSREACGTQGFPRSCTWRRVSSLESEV
# GluN1/GluN2B, sequence (Q00960 27-1482, other chains not shown): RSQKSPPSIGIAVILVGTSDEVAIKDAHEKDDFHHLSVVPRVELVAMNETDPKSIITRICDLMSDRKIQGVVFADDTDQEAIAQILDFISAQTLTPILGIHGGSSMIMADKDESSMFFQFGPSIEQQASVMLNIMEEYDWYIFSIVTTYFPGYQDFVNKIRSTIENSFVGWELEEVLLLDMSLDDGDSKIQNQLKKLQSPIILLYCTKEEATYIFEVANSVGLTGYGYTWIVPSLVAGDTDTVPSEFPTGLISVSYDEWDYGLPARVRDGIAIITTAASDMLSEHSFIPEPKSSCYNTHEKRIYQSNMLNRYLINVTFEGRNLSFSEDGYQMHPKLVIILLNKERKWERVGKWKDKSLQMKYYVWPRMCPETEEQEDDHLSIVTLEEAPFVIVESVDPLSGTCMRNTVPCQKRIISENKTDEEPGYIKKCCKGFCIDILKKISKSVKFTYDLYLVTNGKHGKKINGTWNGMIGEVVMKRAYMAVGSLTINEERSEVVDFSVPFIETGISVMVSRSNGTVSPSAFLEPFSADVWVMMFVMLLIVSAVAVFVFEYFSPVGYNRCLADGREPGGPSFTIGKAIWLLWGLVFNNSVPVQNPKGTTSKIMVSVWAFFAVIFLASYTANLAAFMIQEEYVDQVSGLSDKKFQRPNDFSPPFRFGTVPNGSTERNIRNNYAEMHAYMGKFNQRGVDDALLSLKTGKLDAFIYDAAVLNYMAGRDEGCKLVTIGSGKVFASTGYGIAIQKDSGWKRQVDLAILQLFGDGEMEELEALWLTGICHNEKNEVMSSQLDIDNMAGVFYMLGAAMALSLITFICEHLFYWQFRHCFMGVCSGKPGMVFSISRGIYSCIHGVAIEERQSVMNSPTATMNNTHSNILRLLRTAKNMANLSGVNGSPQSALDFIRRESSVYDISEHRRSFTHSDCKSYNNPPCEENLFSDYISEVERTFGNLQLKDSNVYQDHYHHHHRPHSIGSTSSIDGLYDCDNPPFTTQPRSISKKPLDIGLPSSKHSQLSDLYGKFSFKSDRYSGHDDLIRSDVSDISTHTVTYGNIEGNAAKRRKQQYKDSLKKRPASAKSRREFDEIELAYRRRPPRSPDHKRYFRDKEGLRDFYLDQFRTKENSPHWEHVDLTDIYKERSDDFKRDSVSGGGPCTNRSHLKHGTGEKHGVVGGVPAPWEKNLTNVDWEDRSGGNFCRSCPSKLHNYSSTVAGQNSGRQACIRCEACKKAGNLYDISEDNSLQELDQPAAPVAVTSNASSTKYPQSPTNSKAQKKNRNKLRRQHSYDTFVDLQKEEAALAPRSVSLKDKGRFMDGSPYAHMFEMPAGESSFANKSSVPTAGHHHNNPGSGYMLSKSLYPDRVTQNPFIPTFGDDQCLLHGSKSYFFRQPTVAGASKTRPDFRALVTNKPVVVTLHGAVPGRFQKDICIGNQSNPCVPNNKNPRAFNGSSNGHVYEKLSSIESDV
compound,measurement,setting,value
"COc1ccc2nc(/C=C/c3cccc([N+](=O)[O-])c3)n(-c3ccc(C(=O)O)cc3)c(=O)c2c1 [QNZ46, (E)-4-(6-methoxy-2-(3-nitrostyryl)-4-oxoquinazolin-3(4H)-yl)-benzoic acid]",nH (Hill slope),[1],1.1
same,Relative IC50 (IC50 2X / IC50 2D),[1]; fold shift relative to GluN2D,1.2
same,nH (Hill slope),[2],1.1
same,selectivity for GluN2C- and GluN2D-containing receptors over receptors containing GluN2A or GluN2B,[2],~ 50 fold
same,Relative IC50 (IC50 2X / IC50 2D),[2]; [32],1.0
same,difference in QNZ46 IC50 values between GluN2A- and GluN2D-containing receptors,"[2]; rat, xenopus oocytes",~ 50 fold and 50 fold
same,IC50,[3],16 ± 1 µM
same,nH (Hill slope),[4],1.0
same,Relative IC50 (IC50 2X / IC50 2D),[4]; fold shift relative to GluN2D,4.1
same,nH (Hill slope),[5],1.0
same,Relative IC50 (IC50 2X / IC50 2D),[5]; [32],1.8
same,nH (Hill slope),[6]; [33],1.0 ^a
same,Relative IC50 (IC50 2X / IC50 2D),[6]; fold shift relative to GluN2D,23
same,nH (Hill slope),[7]; [33],1.0 ^a
same,Relative IC50 (IC50 2X / IC50 2D),[7]; [32],47
same,nH (Hill slope),[8],1.0
same,Relative IC50 (IC50 2X / IC50 2D),[8]; fold shift relative to GluN2D,2.0
same,IC50,[9],7.7 ± 0.7 µM
same,maximum solubility,[10],70 µM
same,IC50,[11],0.5 ± 0.02 µM
same,nH (Hill slope),[12],1.1
same,Relative IC50 (IC50 2X / IC50 2D),[12]; fold shift relative to GluN2D,0.1
same,nH (Hill slope),[13],1.0
same,Relative IC50 (IC50 2X / IC50 2D),[13]; fold shift relative to GluN2D,3.8
same,IC50,[14],15 ± 1 µM
same,IC50,[15],7.6 ± 0.6 µM
same,nH (Hill slope),[16],1.3
same,Relative IC50 (IC50 2X / IC50 2D),[16]; fold shift relative to GluN2D,1.9
same,IC50,[17],23 ± 2 µM
same,nH (Hill slope),[18],1.1
same,Relative IC50 (IC50 2X / IC50 2D),[18]; fold shift relative to GluN2D,5.9
same,nH (Hill slope),[19],1.1
same,Relative IC50 (IC50 2X / IC50 2D),[19]; fold shift relative to GluN2D,1.2
same,nH (Hill slope),[20]; [33],1.0 ^a
same,Relative IC50 (IC50 2X / IC50 2D),[20]; [32],49
same,nH (Hill slope),[21],1.2
same,Relative IC50 (IC50 2X / IC50 2D),[21]; fold shift relative to GluN2D,4.9
same,IC50,[22],19 ± 2 µM
same,nH (Hill slope),[23],1.0
same,Relative IC50 (IC50 2X / IC50 2D),[23]; fold shift relative to GluN2D,2.6
same,IC50,[24],10 ± 1 µM
same,nH (Hill slope),[25],1.2
same,Relative IC50 (IC50 2X / IC50 2D),[25]; fold shift relative to GluN2D,4.4
same,IC50,[26],17 ± 1 µM
same,nH (Hill slope),[27],1.0
same,Relative IC50 (IC50 2X / IC50 2D),[27]; fold shift relative to GluN2D,0.2
same,IC50,[28],0.7 ± 0.04 µM
same,τinhibition,[29]; 1 μM QNZ46 applied after activation,356 ± 6 ms
same,Deactivation % slow,[29]; 1 μM QNZ46 plus glycine continuously present,78%
same,Deactivation τfast,[29]; [34],1210 ± 150 ms
same,Deactivation τslow,[29]; [34],5640 ± 160 ms
same,τinhibition,"[29]; 1 μM QNZ46 present before, during, and after activation",344 ± 6 ms
same,τinhibition,[29]; 3 μM QNZ46 applied after activation,268 ± 11 ms
same,Deactivation % slow,[29]; 3 μM QNZ46 plus glycine continuously present,79%
same,Deactivation τfast,[29]; [35],1340 ± 50 ms
same,Deactivation τslow,[29]; [35],7100 ± 180 ms
same,τinhibition,"[29]; 3 μM QNZ46 present before, during, and after activation",244 ± 5 ms
same,voltage-dependence of inhibition,"[29]; 10 μM QNZ46, 1000 μM glutamate plus 100 μM glycine",independent of membrane holding potential
same,τinhibition,[29]; 10 μM QNZ46 applied after activation,145 ± 13 ms
same,Deactivation % slow,[29]; 10 μM QNZ46 plus glycine continuously present,100%
same,Deactivation τslow,"[29]; 10 μM QNZ46 plus glycine continuously present, mono-exponential fit",8150 ± 330 ms
same,τinhibition,"[29]; 10 μM QNZ46 present before, during, and after activation",116 ± 3 ms
same,τinhibition,[29]; 20 μM QNZ46 applied after activation,91 ± 11 ms
same,Deactivation % slow,[29]; 20 μM QNZ46 plus glycine continuously present,100%
same,Deactivation τslow,"[29]; 20 μM QNZ46 plus glycine continuously present, mono-exponential fit",10130 ± 280 ms
same,τinhibition,"[29]; 20 μM QNZ46 present before, during, and after activation",74 ± 2 ms
same,increase in QNZ46 potency by glutamate binding to GluN2D,[29]; IC50 with glutamate vs glycine alone or no agonists,> 10 fold
same,τoff for QNZ46,[29]; continuous presence of glutamate,460 ms
same,dependence of inhibition on agonist concentration,[29]; increasing concentrations of glutamate or glycine,independent of agonist concentration
same,increase of time constants for deactivation (τweighted) in the presence of QNZ46,"[29]; up to, QNZ46 1 – 20 μM, after removal of glutamate",~ 2 fold
same,Kd,[30],4.9 µM
same,inhibition at 1 µM,"[30]; HEK293, read-out: % inhibition of steady-state responses, 1 μM QNZ46 applied after activation",23 ± 1%
same,inhibition at 1 µM,"[30]; HEK293, read-out: % inhibition of steady-state responses, 1 μM QNZ46 present before, during, and after activation",28 ± 3%
same,inhibition at 3 µM,"[30]; HEK293, read-out: % inhibition of steady-state responses, 3 μM QNZ46 applied after activation",50 ± 2%
same,inhibition at 3 µM,"[30]; HEK293, read-out: % inhibition of steady-state responses, 3 μM QNZ46 present before, during, and after activation",46 ± 3%
same,inhibition at 10 µM,"[30]; HEK293, read-out: % inhibition of steady-state responses, 10 μM QNZ46 applied after activation",75 ± 1%
same,inhibition at 10 µM,"[30]; HEK293, read-out: % inhibition of steady-state responses, 10 μM QNZ46 present before, during, and after activation",73 ± 2%
same,inhibition at 20 µM,"[30]; HEK293, read-out: % inhibition of steady-state responses, 20 μM QNZ46 applied after activation",88 ± 1%
same,inhibition at 20 µM,"[30]; HEK293, read-out: % inhibition of steady-state responses, 20 μM QNZ46 present before, during, and after activation",85 ± 2%
same,inhibition at 10 µM,"[30]; HEK293, read-out: inhibition of the instantaneous current (pre-inhibition), 10 μM QNZ46 alone, nominal absence of glutamate plus glycine",~11%
N[C@@H](CCC(=O)O)C(=O)O [glutamate],EC50,[31]; in the absence of QNZ46,0.44 µM
same,EC50,[31]; in the presence of 10 μM QNZ46,0.22 µM
same,time constant for agonist deactivation (τweighted),"[29]; absence of QNZ46, continuous presence of glycine",3810 ms
